The values that follow come from article PMC8362182, “Acetylenic Replacement of Albicidin's Methacrylamide Residue Circumvents Detrimental E/Z Photoisomerization and Preserves Antibacterial Activity” (Chemistry (Weinheim an Der Bergstrasse, Germany), 2021).

Converted amounts (≈) assume the structure as drawn. Like-named read-outs stand apart in the source and are kept apart here.

Assay [1] deals with T1, E. coli DSM1116.
T1 construct: DSM1116
Description: microbe, parasite or virus in culture. On the set-up: broth microdilution MIC in Mueller-Hinton Broth II, CLSI M07-A9. The procedure: (§1) 2 Procedures for Biological Assays. Microdilution Assay. Minimal inhibitory concentration (MIC) values were determined according to the ninth edition of the Approved Standard M07-A9. The test was carried out for six different bacterial strains (E.coli DSM1116 [Gram-negative], E. coli BW25113 [Gram-negative], B. subtilis DSM10 [Gram-postive], M. luteus DSM1790 [Gram-postive], M. phlei DSM750 [Gram-postive], S. typhimurium TA100 [Gram-negative]. 20 µL of cryo stock of each strain were inoculated in 20 mL LB medium (Lysogeny broth: 10 g/L peptone, 5 g/L yeast extract, 5 g/L NaCl) followed by incubation overnight at 37 °C, 200 rpm. The test inoculum was adjusted by the 0.5 McFarland Standard (OD625 from 0.08 to 0.1). Within 15 min of preparation, the adjusted inoculum suspension was diluted in MHBII (BBLTM Mueller-Hinton Broth II, Becton, Dickinson and Company, New Jersey, USA) so that each well contained approximately 5 × 10^5 CFU/mL in a final volume of 100 µL. 95 µL of the inoculum were applied per well and 5 µL of the (diluted) antibiotic substance were added. Previously, the dry antibiotic compounds (1 to 15 and antibiotic control Ciprofloxacin (CIP)) were dissolved in DMSO (100%) with a concentration of 2560 µg/mL, and the so obtained stock solutions were further diluted in DMSO (100%). 5 µL of each antibiotic dilution were applied to the microdilution tray to reach final concentrations of 8 µg/mL to 0.016 µg/mL. One row of each well plate served as a growth control without antibiotic substances and another row of the microdilution tray served as sterility control (only MHB II-media). The antimicrobial effect of the solvent (DMSO) was tested by adding 5 µL DMSO to several wells. […] After UV exposure, we observed a second resonance set mainly for signals arising from residues MCA and pABA‐1. The new signals for the methyl, vinyl and aromatic protons of MCA were clearly shifted up‐field. To provide evidence that the second resonance set arose from the Z isomer, we performed 2D nuclear Overhauser enhancement (NOE) measurements, which unambiguously confirmed the expected atomic distances in the two isomeric states (Figure S1 in the Supporting Information). While only a small portion of the initial E state (t=0 h) was converted after t=2.5 h, an almost complete conversion to the Z isomer was detected after t=16 h. […] After 32 h, however, the equilibrium had also been reached and approximately 65 % of the fluoro analogue adopted the Z‐isomeric form (Figure S2). It is important to note that significant accumulation of the (Z)‐isomer also occurred when albicidin samples were exposed to sunlight (ca. 50 and 80 % Z after 32 and 160 h daylight, respectively) underlining the vulnerability of 1 during routine handling. These findings became even more relevant when we determined minimal inhibitory concentrations (MICs) against a panel of bacteria (Table S1). […] The fact, that the albicidin producer X. albilineans inhabits the xylem of sugar cane, which is exposed to sunlight, could severely impact the stability of albicid

Assay [2] has as its system T2, B. subtilis DSM10.
T2 construct: DSM10
Description: microbe, parasite or virus in culture. Details: broth microdilution MIC in Mueller-Hinton Broth II, CLSI M07-A9. As to conditions: Bacillus subtilis. The method, then: as §1

For assay [3], the system named is T3, M. luteus DSM1790.
T3 construct: DSM1790
Kind of assay: microbe, parasite or virus in culture. Details: broth microdilution MIC in Mueller-Hinton Broth II, CLSI M07-A9. As to conditions: Micrococcus luteus. The procedure:
as §1

Assay [4] relates to T4, S. typhimurium TA100.
T4 construct: TA100
Description: microbe, parasite or virus in culture. On the set-up: broth microdilution MIC in Mueller-Hinton Broth II, CLSI M07-A9. As to conditions: Salmonella enterica. The method, then:
as §1

For assay [5], the system named is T5, E. coli BW25113.
T5 construct: BW25113
Description: microbe, parasite or virus in culture. On the set-up: broth microdilution MIC in Mueller-Hinton Broth II, CLSI M07-A9. The conditions noted are these: Escherichia coli. The method, then: as §1

The test system of assay [6] is T2, B. subtilis DSM10. Description: microbe, parasite or virus in culture. Details: broth microdilution MIC, CLSI M07-A9, MHB II. As to conditions: Bacillus subtilis. The procedure:
(§2) 2 Procedures for Biological Assays. Microdilution Assay. Minimal inhibitory concentration (MIC) values were determined according to the ninth edition of the Approved Standard M07-A9. The test was carried out for six different bacterial strains (E.coli DSM1116 [Gram-negative], E. coli BW25113 [Gram-negative], B. subtilis DSM10 [Gram-postive], M. luteus DSM1790 [Gram-postive], M. phlei DSM750 [Gram-postive], S. typhimurium TA100 [Gram-negative]. 20 µL of cryo stock of each strain were inoculated in 20 mL LB medium (Lysogeny broth: 10 g/L peptone, 5 g/L yeast extract, 5 g/L NaCl) followed by incubation overnight at 37 °C, 200 rpm. The test inoculum was adjusted by the 0.5 McFarland Standard (OD625 from 0.08 to 0.1). Within 15 min of preparation, the adjusted inoculum suspension was diluted in MHBII (BBLTM Mueller-Hinton Broth II, Becton, Dickinson and Company, New Jersey, USA) so that each well contained approximately 5 × 10^5 CFU/mL in a final volume of 100 µL. 95 µL of the inoculum were applied per well and 5 µL of the (diluted) antibiotic substance were added. Previously, the dry antibiotic compounds (1 to 15 and antibiotic control Ciprofloxacin (CIP)) were dissolved in DMSO (100%) with a concentration of 2560 µg/mL, and the so obtained stock solutions were further diluted in DMSO (100%). 5 µL of each antibiotic dilution were applied to the microdilution tray to reach final concentrations of 8 µg/mL to 0.016 µg/mL. One row of each well plate served as a growth control without antibiotic substances and another row of the microdilution tray served as sterility control (only MHB II-media). The antimicrobial effect of the solvent (DMSO) was tested by adding 5 µL DMSO to several wells. Purity check and cell titer control were performed according to International Standard M07-

Assay [7] has as its system T3, M. luteus DSM1790. Kind of assay: microbe, parasite or virus in culture. Details: broth microdilution MIC, CLSI M07-A9, MHB II. As to conditions: Micrococcus luteus. The method, then: as §2
The test system of assay [8] is T4, S. typhimurium TA100. Kind of assay: microbe, parasite or virus in culture. Details: broth microdilution MIC, CLSI M07-A9, MHB II. As to conditions: Salmonella enterica. The procedure:
as §2

Assay [9] concerns T5, E. coli BW25113. Description: microbe, parasite or virus in culture. Details: broth microdilution MIC, CLSI M07-A9, MHB II. As to conditions: Escherichia coli. The method, then:
as §2

The target of a further assay is T6, E. coli DNA gyrase (Escherichia coli, UniProt P0AES4+P0AES6).
T6 construct: gene gyrA; holoenzyme A2B2 (known biology)
T6 sequence (P0AES4 2-875, one chain of several): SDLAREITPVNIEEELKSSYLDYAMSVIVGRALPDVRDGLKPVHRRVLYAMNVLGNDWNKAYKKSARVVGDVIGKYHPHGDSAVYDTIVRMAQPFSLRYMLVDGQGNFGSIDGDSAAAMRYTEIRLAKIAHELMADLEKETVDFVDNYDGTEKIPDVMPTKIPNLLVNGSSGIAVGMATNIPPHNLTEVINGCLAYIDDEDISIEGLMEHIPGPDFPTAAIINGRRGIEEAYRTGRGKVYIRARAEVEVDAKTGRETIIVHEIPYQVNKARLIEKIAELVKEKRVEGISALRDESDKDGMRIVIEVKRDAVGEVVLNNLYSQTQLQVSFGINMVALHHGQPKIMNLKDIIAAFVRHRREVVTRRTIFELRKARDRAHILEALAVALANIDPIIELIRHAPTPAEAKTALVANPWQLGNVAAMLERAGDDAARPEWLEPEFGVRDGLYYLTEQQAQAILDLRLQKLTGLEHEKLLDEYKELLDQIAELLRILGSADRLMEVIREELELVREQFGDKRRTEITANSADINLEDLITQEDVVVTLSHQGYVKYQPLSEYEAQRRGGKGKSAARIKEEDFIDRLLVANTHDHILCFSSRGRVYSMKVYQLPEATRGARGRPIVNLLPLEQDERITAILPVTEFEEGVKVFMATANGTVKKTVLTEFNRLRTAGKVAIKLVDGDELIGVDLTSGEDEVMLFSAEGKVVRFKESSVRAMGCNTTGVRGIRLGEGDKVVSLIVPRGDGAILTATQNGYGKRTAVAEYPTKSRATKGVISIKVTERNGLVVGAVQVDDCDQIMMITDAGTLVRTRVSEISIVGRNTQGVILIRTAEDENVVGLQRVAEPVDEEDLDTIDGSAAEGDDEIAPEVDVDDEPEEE
Kind of assay: DNA gyrase supercoiling assay. The class given is biochemical. The conditions noted are these: tested at 45 nM.

Assay [10] relates to T1, E. coli DSM1116. Description: microbe, parasite or virus in culture. As to conditions: Escherichia coli. On the set-up: broth microdilution MIC, CLSI M07-A9, MHB II. The procedure:
as §2

The mark [11] stands for this setting: Escherichia coli, DSM1116, read-out: MIC.

On to `O=C(O)c1cn(C2CC2)c2cc(N3CCNCC3)c(F)cc2c1=O` [CIP, ciprofloxacin], for which the MIC was 0.016 µg/mL (≈ 0.0483 µM) in the assay on E. coli DSM1116 [1] (setting [11]); 0.031 µg/mL (≈ 0.0936 µM) against E. coli DSM1116 [1] (inhibitor, CIP); 0.25 µg/mL (≈ 0.754 µM) with B. subtilis DSM10 [2]; 1 µg/mL (≈ 3.02 µM) with M. luteus DSM1790 [3]; at most 0.016 µg/mL against S. typhimurium TA100 [4]; at most 0.016 µg/mL against E. coli BW25113 [5]. Also, the MIC with B. subtilis DSM10 [6] was 0.25 µg/mL (≈ 0.754 µM); against M. luteus DSM1790 [7], 1 µg/mL (≈ 3.02 µM); with S. typhimurium TA100 [8] it was at most 0.016 µg/mL; against E. coli BW25113 [9] it was at most 0.016 µg/mL.
Turning to `COc1c(NC(=O)c2ccc(NC(=O)c3ccc(NC(=O)[C@H](CC#N)NC(=O)c4ccc(NC(=O)/C(C)=C\c5ccc(O)cc5)cc4)cc3)c(OC)c2O)ccc(C(=O)O)c1O` [Z isomer of albicidin], the “inhibition at 45 nM” value on E. coli DNA gyrase is recorded as “the Z isomer was incapable of inhibiting DNA gyrase”.
With `COc1c(NC(=O)c2ccc(NC(=O)c3ccc(NC(=O)[C@H](CC#N)NC(=O)c4ccc(NC(=O)/C(C)=C/c5ccc(O)cc5)cc4)cc3)c(OC)c2O)ccc(C(=O)O)c1O` [compound 1, albicidin], the MIC was found to be 0.063 µg/mL (≈ 0.0747 µM) with E. coli DSM1116 [1] (setting [11]); 0.063 µg/mL (≈ 0.0747 µM) in the assay with E. coli DSM1116 [1] (Escherichia coli, dark sample, 100% E isomer); 0.25 µg/mL (≈ 0.297 µM) with B. subtilis DSM10 [2]; 0.25 µg/mL (≈ 0.297 µM) against B. subtilis DSM10 [2] (dark sample, 100% E isomer); 1 µg/mL (≈ 1.19 µM) in the assay with M. luteus DSM1790 [3]; 1 µg/mL (≈ 1.19 µM) against M. luteus DSM1790 [3] (dark sample, 100% E isomer). For the same compound, the MIC in the assay with S. typhimurium TA100 [4] was at most 0.016 µg/mL; against S. typhimurium TA100 [4] (dark sample, 100% E isomer), 0.016 µg/mL (≈ 0.019 µM); with E. coli BW25113 [5] it was 0.063 µg/mL (≈ 0.0747 µM); with E. coli BW25113 [5] (dark sample, 100% E isomer) it was 0.063 µg/mL (≈ 0.0747 µM); in the assay on E. coli DSM1116 [10], 0.063 µg/mL (≈ 0.0747 µM); with B. subtilis DSM10 [6], 0.25 µg/mL (≈ 0.297 µM). For the same compound, the MIC in the assay on M. luteus DSM1790 [7] was 1 µg/mL (≈ 1.19 µM); with S. typhimurium TA100 [8], at most 0.016 µg/mL; against E. coli BW25113 [9], 0.063 µg/mL (≈ 0.0747 µM).
